From US20240140895A1, “NOVEL AROMATIC MOLECULES” (XENIOPRO GmbH, priority 2018, published 2024)

Legend:
Assay type in all cases: cell-based
[1] = test system: TANOUE cells (human B cell leukemia cells); test: Proliferation assay (alamarBlue) with TANOUE cells; settings: Homo sapiens, B-cell, read-out: Activity Range: weighted arithmetic mean (AVEw) of normalized fluorescence intensity relative to DMSO basis level 1.0
Excerpt: (§1) The antiproliferative activities of compounds falling under formula (Ia), (Tb) and (Ic), respectively, were investigated on cells or cell lines originating from a disorder of the haematopoietic system, including the myeloid cell compartment and the lymphoid cell compartment (T-cells and B-cells), the neuroendocrine system, the cervix, the breast, the ovaries, the lung, the gastrointestinal tract, and the mucosal epithelium, as well as from the skin epithelium and from the muscle. To this end, HL-60 cells, NB-4 cells, HH cells, RPMI-8402 cells, TANOUE cells, TT cells, HeLa cells, MDA-MB-231 cells, FU-OV-1 cells, LOU-NH91 cells, 23132/87 cells, CAL-27 cells, BHY cells, SCC-25 cells, A-431 cells, human primary epidermal keratinocytes (HPEK), and C2C12 cells were seeded into 96-well plates suitable for fluorescence assays (CORNING #3598) at following initial cell numbers: 1000 cells per well for HL-60; 1000 cells per well for NB-4; 5000 cells per well for HH; 5000 cells per well for RPMI-8402; 1500 cells per well for TANOUE; 9000 cells per well for TT; 2000 cells per well for HeLa; 3000 cells per well for MDA-MB-231; 3000 cells per well for FU-OV-1; 4000 cells per well for LOU-NH91; 2000 cells per well for 23132/87; 2000 cells per well for CAL-27; 1500 cells per well for BHY; 1500 cells per well for SCC-25; 700 cells per well for A-431; 1000 cells per well for HPEK; 500 cells per well for C2-C12. The cells were treated with compounds at indicated final concentrations (diluted from the 1000× stock-solutions in DMSO to a final DMSO concentration of 0.1% v/v in H2O (Water For Injection, WFI, Fisherscientific #10378939)) or with the empty carrier DMSO at 0.1% v/v as control for 5 days. At day 5 after starting the treatments the cells were subjected to the alamarBlue® Proliferation Assay (Bio-Rad Serotec GmbH, BUF012B) according to the protocol of the manufacturer. The readout was taken with a multi-well plate-reader in the fluorescence mode with applying a filter for excitation at 560 nm (band width 10 nm) and for emission at 590 nm (band width 10 nm). Control treatments for growth inhibition with commercial compounds such as Methotrexate (MTREX) and Resveratrol (RES) were included on every plate. Some of the test compounds of the present invention were obtained and applied as their salts. According cases are indicated in the column “Specification” in Table 30 to Table 62 and by their sum formula in Table 63.
(§2) The assays were performed in duplicate or more replicates of independent single experiments each containing a six-fold replicate for every condition. For every individual plate, the measured fluorescence intensity values of the conditions with compound treatment were normalized against the corresponding equally weighted arithmetic mean of the fluorescence intensity values of the six DMSO treated control wells in order to obtain the relative values to a baseline level of 1.0.
(§3) Two independent outlier analyses were performed according to the methods by Peirce and Chauvenet (Ross, Journal of Engineering Technology 2003, 1-12). Outliers confirmed by at least one of the methods were excluded from the calculations but not more than one value out of six per compound within a single experiment. The weighted arithmetic mean (here abbreviated as AVEw) for each compound was calculated from the normalized values over all independent replicates of the single experiments comprising the six replicates each. The corresponding standard deviation for the weighted arithmetic mean was calculated according to the method described by Bronstein et al. (Bronstein, Semendjajew, Musiol, Muhlig, Taschenbuch der Mathematik, 5th edition 2001 (German), publisher: Verlag Harri Deutsch, Frankfurt am Main and Thun) and was combined with the Gauβ′ error propagation associated with the performed calculation for the normalization. The resulting standard deviation is herein referred to as “combined standard deviation”. […]

[2] = test system: HPEKp cells (human epidermal keratinocyte progenitors, pooled); test: Proliferation assay (alamarBlue) with HPEKp cells; settings: compound at 10 μM, read-out: Activity Range: weighted arithmetic mean (AVEw) of normalized fluorescence intensity, relative to DMSO basis level 1.0
Excerpt: as §1, §2, §3

[3] = test system: CAL-27 cells (human tongue squamous cell carcinoma cells); test: Proliferation assay (alamarBlue) with CAL-27 cells; settings: read-out: Activity Range: weighted arithmetic mean (AVEw) of normalized fluorescence intensity relative to DMSO basis level 1.0
Excerpt: as §1, §2, §3

[4] = test system: MDA-MB-231 cells (human breast carcinoma cells); test: Proliferation assay (alamarBlue) with MDA-MB-231 cells; settings: Homo sapiens, read-out: Activity Range: weighted arithmetic mean (AVEw) of normalized fluorescence intensity relative to DMSO basis level 1.0
Excerpt: as §1, §2, §3

[5] = test system: C2C12 cells (murine myoblast cells); test: Proliferation assay (alamarBlue) with C2C12 cells; settings: Mus musculus, compound at 20 μM, read-out: Activity Range: weighted arithmetic mean (AVEw) of normalized fluorescence intensity, relative to DMSO basis level 1.0
Excerpt: as §1, §2, §3

[6] = test system: NB-4 cells (human acute promyelocytic leukemia cells); test: Proliferation assay (alamarBlue) with NB-4 cells; settings: Homo sapiens, Table 32, compound at 20 μM, read-out: Activity Range (AVEw, weighted arithmetic mean of normalized fluorescence intensity, DMSO = 1.0)
Excerpt: as §1, §2, §3

[7] = test system: SCC-25 cells (human tongue squamous cell carcinoma cells); test: Proliferation assay (alamarBlue) with SCC-25 cells; settings: Homo sapiens, read-out: Activity Range: weighted arithmetic mean (AVEw) of normalized fluorescence intensity relative to DMSO basis level 1.0
Excerpt: as §1, §2, §3

[8] = test system: RPMI-8402 cells (human T cell acute lymphoblastic leukemia cells); test: Proliferation assay (alamarBlue) with RPMI-8402 cells; settings: Homo sapiens, read-out: Activity Range: weighted arithmetic mean (AVEw) of normalized fluorescence intensity relative to DMSO basis level 1.0
Excerpt: as §1, §2, §3

[9] = test system: HH cells (human cutaneous T-cell lymphoma cells); test: Proliferation assay (alamarBlue) with HH cells; settings: Table 34, compound at 20 μM, read-out: Activity Range (AVEw, weighted arithmetic mean of normalized fluorescence intensity, DMSO = 1.0)
Excerpt: as §1, §2, §3

[10] = test system: A-431 cells (human epidermoid squamous cell carcinoma cells); test: Proliferation assay (alamarBlue) with A-431 cells; settings: Homo sapiens, 20 μM, read-out: Activity Range: weighted arithmetic mean (AVEw) of normalized fluorescence intensity relative to DMSO basis level 1.0
Excerpt: as §1, §2, §3

[11] = test system: BHY cells (human oral squamous cell carcinoma cells); test: Proliferation assay (alamarBlue) with BHY cells; settings: read-out: Activity Range: weighted arithmetic mean (AVEw) of normalized fluorescence intensity relative to DMSO basis level 1.0
Excerpt: as §1, §2, §3

[12] = test system: HL-60 cells (human acute myeloid leukemia cells); test: Proliferation assay (alamarBlue) with HL-60 cells; settings: Homo sapiens, Table 30, compound at 20 μM, read-out: Activity Range (AVEw, weighted arithmetic mean of normalized fluorescence intensity, DMSO = 1.0)
Excerpt: as §1, §2, §3

[13] = test system: 23132/87 cells (human gastric adenocarcinoma cells); test: Proliferation assay (alamarBlue) with 23132/87 cells; settings: read-out: Activity Range: weighted arithmetic mean (AVEw) of normalized fluorescence intensity relative to DMSO basis level 1.0
Excerpt: as §1, §2, §3

Row | Structure (SMILES) | activity at 20 µM [1] | activity at 10 µM [2] | activity at 20 µM [3] | activity at 20 µM [4] | activity at 20 µM [5] | activity at 20 µM [6] | activity at 20 µM [7] | activity at 20 µM [8] | activity at 20 µM [9] | activity at 20 µM [10] | activity at 20 µM [11] | activity at 20 µM [12] | activity at 20 µM [13]
1 | CCOC(=O)c1ccc(Oc2ccc(C3CCN(C)CC3)cc2)cc1 [XPA-0064, ethyl 4-(4-(1-methylpiperidin-4-yl)phenoxy)benzoate] | 0 to 20% | 0 to 20% | 0 to 20% | 40 to 60% | 0 to 20% | 20 to 40% | 0 to 20% | 0 to 20% | 40 to 60% | 0 to 20% | 0 to 20% | 70 to 80% | 70 to 80%
2 | c1ccc(COC2(c3ccc(Oc4ccc(C5CCCCC5)cc4)cc3)CNC2)cc1 [XPA-1317, 3-(benzyloxy)-3-(4-(4-cyclohexylphenoxy)phenyl)azetidine] | 0 to 20% | 0 to 20% | 0 to 20% | 0 to 20% | 0 to 20% | 0 to 20% | 0 to 20% | 0 to 20% | 0 to 20% | 0 to 20% | 0 to 20% | 0 to 20% | 0 to 20%
3 | CCOC(=O)c1ncc(Oc2ccc(C34CC5CC(CC(C5)C3)C4)cc2)cn1 [XPA-1303, ethyl 5-(4-((3r,5r,7r)-adamantan-1-yl)phenoxy)pyrimidine-2-carboxylate] | 80 to 90% |  |  |  |  |  |  | 80 to 90% |  |  |  |  | 
4 | O=Cc1ccc(Oc2ccc(C34CC5CC(CC(C5)C3)C4)cc2)cc1 [XPA-0028, 4-(4-(adamantan-1-yl)phenoxy)benzaldehyde] | 0 to 20% | 0 to 20% |  | 70 to 80% | 60 to 70% | 40 to 60% | 80 to 90% | 40 to 60% |  | 80 to 90% |  | 40 to 60% | 
5 | CCOC(=O)c1ccc(Oc2ccc(CCN(C)C)cc2)cc1 [XPA-0060, ethyl 4-(4-(2-(dimethylamino)ethyl)phenoxy)benzoate] |  | 20 to 40% | 40 to 60% | 40 to 60% | 40 to 60% | 80 to 90% | 20 to 40% | 40 to 60% | 60 to 70% | 80 to 90% | 70 to 80% |  | 
6 | C=Cc1cc(C2CCCCC2)ccc1Oc1ccc(C(=O)OCC)cc1 [XPA-1284, ethyl 4-(4-cyclohexyl-2-vinylphenoxy)benzoate] | 0 to 20% | 0 to 20% | 60 to 70% | 20 to 40% | 20 to 40% | 20 to 40% | 70 to 80% | 20 to 40% | 60 to 70% | 40 to 60% |  | 0 to 20% | 70 to 80%
7 | OC1(c2ccc(Oc3ccc(C45CC6CC(CC(C6)C4)C5)cc3)cc2)COC1 [XPA-0140, 3-(4-(4-((3r,5r,7r)-adamantan-1-yl)phenoxy)phenyl)oxetan-3-ol] | 0 to 20% | 0 to 20% | 20 to 40% | 20 to 40% | 70 to 80% | 60 to 70% | 20 to 40% | 20 to 40% | 70 to 80% | 40 to 60% | 70 to 80% | 0 to 20% | 70 to 80%
